Assay results published in PMC9951859, “Investigation of α,ω-Disubstituted Polyamine-Cholic Acid Conjugates Identifies Hyodeoxycholic and Chenodeoxycholic Scaffolds as Non-Toxic, Potent Antimicrobials” (Antibiotics, 2023).
pIC50: −log10 of the molar value. In brackets after ≈: the same amount, converted by molar mass. Where two headings read alike, the source gives them in different places.

Legend:
[1] = test system: Candida albicans ATCC 90028; test: Antimicrobial MIC assay (CO-ADD) against C. albicans; format: cell-based; conditions: mean (n = 2)
From the text: (§1) Antimicrobial evaluation against S. aureus (MRSA) (ATCC 43300), E. coli (ATCC 25922), K. pneumoniae (ATCC 700603), A. baumannii (ATCC 19606), C. albicans (ATCC 90028), and C. neoformans (ATCC 208821) was undertaken at the Community for Open Antimicrobial Drug Discovery at The University of Queensland (Australia) according to their standard protocols as reported previously.

[2] = test system: Cryptococcus neoformans ATCC 208821; test: Antimicrobial MIC assay (CO-ADD) against C. neoformans; format: cell-based
From the text: as §1

[3] = test system: Staphylococcus aureus ATCC 43300 (MRSA); test: Antimicrobial MIC assay (CO-ADD) against S. aureus MRSA; format: cell-based; conditions: Staphylococcus aureus, read-out: MIC S.a.
From the text: as §1

[4] = test system: Escherichia coli ATCC 25922; test: Antimicrobial MIC assay (CO-ADD) against E. coli; format: cell-based; conditions: Escherichia coli, ATCC25922, read-out: MIC E.c.
From the text: as §1

[5] = test system: Klebsiella pneumoniae ATCC 700603; test: Antimicrobial MIC assay (CO-ADD) against K. pneumoniae; format: cell-based; conditions: Klebsiella pneumoniae, ATCC700603, read-out: MIC K.p.
From the text: as §1

[6] = test system: Pseudomonas aeruginosa ATCC 27853; test: Antimicrobial MIC assay (CO-ADD) against P. aeruginosa; format: cell-based; conditions: Pseudomonas aeruginosa, ATCC27853, read-out: MIC P.a.
[7] = test system: Acinetobacter baumannii ATCC 19606; test: Antimicrobial MIC assay (CO-ADD) against A. baumannii; format: cell-based; conditions: Acinetobacter baumannii, ATCC19606, read-out: MIC A.b.
From the text: as §1

[8] = Cytotoxicity assay on HEK293; format: cell-based, human; conditions: human, HEK293 human embryonic kidney cells; concentration at 50% cytotoxicity on HEK293; mean (n = 2); top dose tested 32 μg/mL
Method: Cytotoxicity assays were conducted using the protocols previously reported.

human red blood cells = test: Hemolytic assay; format: cell-based; conditions: concentration at 10% hemolytic activity on human red blood cells; mean (n = 2); top dose tested 32 μg/mL
Method: Hemolytic assays were conducted using the protocols previously reported.

P. aeruginosa ATCC 27853 = test: Antibiotic enhancement of doxycycline; format: cell-based, Pseudomonas aeruginosa; conditions: doxycycline at 2 μg/mL
Method: (§2) Restoring enhancer concentrations were determined with an inoculum of 5 × 10^5 CFU in […] of MH broth containing two-fold serial dilutions of each derivative in the presence of either doxycycline or erythromycin at 2 μg/mL. […] These measurements were independently repeated in triplicate.

E. coli ATCC 25922 = test: Antibiotic enhancement of erythromycin; format: cell-based, Escherichia coli; conditions: erythromycin at 2 μg/mL
Method: as §2

[9] = Candida albicans, ATCC90028, read-out: MIC C.a., Candida albicans ATCC 90028
[10] = Cryptococcus neoformans, ATCC208821, read-out: MIC C.n.

Structure (SMILES)	MIC ([1]; ATCC90028, Candida albicans ATCC 90028, read-out: MIC C.a.) [µM]	MIC ([2]; ATCC208821, Cryptococcus neoformans ATCC 208821, mean (n = 2), read-out: MIC C.n.) [µM]	MIC [3] [µM]	MIC [4] [µM]	MIC [5] [µM]	MIC [6] [µM]	MIC [7] [µM]	MIC [1, 9] [µM]	MIC [2, 10] [µM]	pIC50 [8]	Hemolysis (HC10) (human red blood cells) [µM]	enhancement of antibiotic activity of doxycycline (P. aeruginosa ATCC 27853)	enhancement of antibiotic activity of erythromycin (E. coli ATCC 25922)
OC(Cn1cncn1)(Cn1cncn1)c1ccc(F)cc1F [fluconazole, reference compound]	0.4 (≈ 0.123 µg/mL)	26 (≈ 7.96 µg/mL)											
C[C@H](CCC(=O)NCCCNCCCCNCCCNC(=O)CC[C@@H](C)[C@H]1CC[C@H]2[C@@H]3C[C@H](O)[C@@H]4C[C@H](O)CC[C@]4(C)[C@H]3CC[C@]12C)[C@H]1CC[C@H]2[C@@H]3C[C@H](O)[C@@H]4C[C@H](O)CC[C@]4(C)[C@H]3CC[C@]12C.O=C(O)C(F)(F)F.O=C(O)C(F)(F)F [Compound 7a, N^1,N^4-Bis(3-((R)-4-((3R,5R,6S,8S,9S,10R,13R,14S,17R)-3,6-dihydroxy-10,13-dimethylhexadecahydro-1H-cyclopenta[a]phenanthren-17-yl)pentanamido)propyl)butane-1,4-diaminium 2,2,2-trifluoroacetate]			3.4	> 27	> 27	> 27	> 27	14	≤ 0.21	< 4.57	>27	No enhancement was observed	No enhancement was observed
C[C@H](CCC(=O)NCCCNCCCCCCCNCCCNC(=O)CC[C@@H](C)[C@H]1CC[C@H]2[C@@H]3[C@@H](O)C[C@@H]4C[C@H](O)CC[C@]4(C)[C@H]3CC[C@]12C)[C@H]1CC[C@H]2[C@@H]3[C@@H](O)C[C@@H]4C[C@H](O)CC[C@]4(C)[C@H]3CC[C@]12C.O=C(O)C(F)(F)F.O=C(O)C(F)(F)F [Compound 8c, N^1,N^7-Bis(3-((R)-4-((3R,5S,7S,8R,9S,10S,13R,14S,17R)-3,7-dihydroxy-10,13-dimethylhexadecahydro-1H-cyclopenta[a]phenanthren-17-yl)pentanamido)propyl)heptane-1,7-diaminium 2,2,2-trifluoroacetate]			≤ 0.21	> 26	> 26	> 26	> 26	13	26	< 4.59	11		
C[C@H](CCC(=O)NCCCNCCCCNCCCNC(=O)CC[C@@H](C)[C@H]1CC[C@H]2[C@@H]3[C@@H](O)C[C@@H]4C[C@H](O)CC[C@]4(C)[C@H]3CC[C@]12C)[C@H]1CC[C@H]2[C@@H]3[C@@H](O)C[C@@H]4C[C@H](O)CC[C@]4(C)[C@H]3CC[C@]12C.O=C(O)C(F)(F)F.O=C(O)C(F)(F)F [Compound 8a, N^1,N^4-Bis(3-((R)-4-((3R,5S,7S,8R,9S,10S,13R,14S,17R)-3,7-dihydroxy-10,13-dimethylhexadecahydro-1H-cyclopenta[a]phenanthren-17-yl)pentanamido)propyl)butane-1,4-diaminium 2,2,2-trifluoroacetate]			27	> 27	> 27	> 27	> 27	27	> 27	< 4.57	7.3		
CN[C@H](CC(C)C)C(=O)N[C@H]1C(=O)N[C@@H](CC(N)=O)C(=O)N[C@H]2C(=O)N[C@H]3C(=O)N[C@H](C(=O)N[C@H](C(=O)O)c4cc(O)cc(O)c4-c4cc3ccc4O)[C@H](O)c3ccc(c(Cl)c3)Oc3cc2cc(c3O[C@@H]2O[C@H](CO)[C@@H](O)[C@H](O)[C@H]2O[C@H]2C[C@](C)(N)[C@H](O)[C@H](C)O2)Oc2ccc(cc2Cl)[C@H]1O [vancomycin, reference compound]			0.7 (≈ 1.01 µg/mL)										
C[C@H](CCC(=O)NCCCNCCCCCCNCCCNC(=O)CC[C@@H](C)[C@H]1CC[C@H]2[C@@H]3[C@@H](O)C[C@@H]4C[C@H](O)CC[C@]4(C)[C@H]3CC[C@]12C)[C@H]1CC[C@H]2[C@@H]3[C@@H](O)C[C@@H]4C[C@H](O)CC[C@]4(C)[C@H]3CC[C@]12C.O=C(O)C(F)(F)F.O=C(O)C(F)(F)F [Compound 8b, N^1,N^6-Bis(3-((R)-4-((3R,5S,7S,8R,9S,10S,13R,14S,17R)-3,7-dihydroxy-10,13-dimethylhexadecahydro-1H-cyclopenta[a]phenanthren-17-yl)pentanamido)propyl)hexane-1,6-diaminium 2,2,2-trifluoroacetate]			1.7	> 26	> 26	> 26	> 26	27	> 27	< 4.57	11		
C[C@H](CCC(=O)NCCCNCCCCCCCCNCCCNC(=O)CC[C@@H](C)[C@H]1CC[C@H]2[C@@H]3[C@@H](O)C[C@@H]4C[C@H](O)CC[C@]4(C)[C@H]3CC[C@]12C)[C@H]1CC[C@H]2[C@@H]3[C@@H](O)C[C@@H]4C[C@H](O)CC[C@]4(C)[C@H]3CC[C@]12C.O=C(O)C(F)(F)F.O=C(O)C(F)(F)F [Compound 8d, N^1,N^8-Bis(3-((R)-4-((3R,5S,7S,8R,9S,10S,13R,14S,17R)-3,7-dihydroxy-10,13-dimethylhexadecahydro-1H-cyclopenta[a]phenanthren-17-yl)pentanamido)propyl)octane-1,8-diaminium 2,2,2-trifluoroacetate]			≤ 0.2	> 26	> 26	> 26	> 26	26	13	< 4.59	5.6		
C[C@H](CCC(=O)NCCCNCCCCCCCCCCCCNCCCNC(=O)CC[C@@H](C)[C@H]1CC[C@H]2[C@@H]3C[C@H](O)[C@@H]4C[C@H](O)CC[C@]4(C)[C@H]3CC[C@]12C)[C@H]1CC[C@H]2[C@@H]3C[C@H](O)[C@@H]4C[C@H](O)CC[C@]4(C)[C@H]3CC[C@]12C.O=C(O)C(F)(F)F.O=C(O)C(F)(F)F [Compound 7f, N^1,N^12-Bis(3-((R)-4-((3R,5R,6S,8S,9S,10R,13R,14S,17R)-3,6-dihydroxy-10,13-dimethylhexadecahydro-1H-cyclopenta[a]phenanthren-17-yl)pentanamido)propyl)dodecane-1,12-diaminium 2,2,2-trifluoroacetate]			≤ 0.19	> 25	> 25	> 25	> 25	≤ 0.2	≤ 0.19	4.60	>25		
C[C@H](CCC(=O)NCCCNCCCCCCNCCCNC(=O)CC[C@@H](C)[C@H]1CC[C@H]2[C@@H]3C[C@H](O)[C@@H]4C[C@H](O)CC[C@]4(C)[C@H]3CC[C@]12C)[C@H]1CC[C@H]2[C@@H]3C[C@H](O)[C@@H]4C[C@H](O)CC[C@]4(C)[C@H]3CC[C@]12C.O=C(O)C(F)(F)F.O=C(O)C(F)(F)F [Compound 7b, N^1,N^6-Bis(3-((R)-4-((3R,5R,6S,8S,9S,10R,13R,14S,17R)-3,6-dihydroxy-10,13-dimethylhexadecahydro-1H-cyclopenta[a]phenanthren-17-yl)pentanamido)propyl)hexane-1,6-diaminium 2,2,2-trifluoroacetate]			≤ 0.21	> 26	> 26	> 26	> 26	13	≤ 0.21	< 4.59	>26		
CC/C(=C(\c1ccccc1)c1ccc(OCCN(C)C)cc1)c1ccccc1 [Tamoxifen, reference compound]										4.62			
C[C@H](CCC(=O)NCCCNCCCCCCCCCCNCCCNC(=O)CC[C@@H](C)[C@H]1CC[C@H]2[C@@H]3[C@@H](O)C[C@@H]4C[C@H](O)CC[C@]4(C)[C@H]3CC[C@]12C)[C@H]1CC[C@H]2[C@@H]3[C@@H](O)C[C@@H]4C[C@H](O)CC[C@]4(C)[C@H]3CC[C@]12C.O=C(O)C(F)(F)F.O=C(O)C(F)(F)F [Compound 8e, N^1,N^10-Bis(3-((R)-4-((3R,5S,7S,8R,9S,10S,13R,14S,17R)-3,7-dihydroxy-10,13-dimethylhexadecahydro-1H-cyclopenta[a]phenanthren-17-yl)pentanamido)propyl)decane-1,10-diaminium 2,2,2-trifluoroacetate]			≤ 0.2	> 25	> 25	> 25	> 25	3.2	1.6	< 4.60	3.3		
